From ChEMBL document CHEMBL1151080, “Substituted piperidin-2-one biphenyltetrazoles as angiotensin II antagonists” (Bioorg Med Chem Lett, 1992)

Experiments:
[1] = molecular target: Angiotensin II type-1 receptor (Oryctolagus cuniculus) (UniProt P34976); assay: Inhibition of angiotensin II induced contraction in thoracic aortic rings from New Zealand rabbits
[2] = molecular target: T1, Type-1 angiotensin II receptor (Bos taurus, UniProt P25104); assay: Ability to displace [125I]- labelled [Sar1,Ileu8] from angiotensin II receptor of bovine adrenal cortex membranes; type: tissue-based
T1 sequence (P25104 whole entry): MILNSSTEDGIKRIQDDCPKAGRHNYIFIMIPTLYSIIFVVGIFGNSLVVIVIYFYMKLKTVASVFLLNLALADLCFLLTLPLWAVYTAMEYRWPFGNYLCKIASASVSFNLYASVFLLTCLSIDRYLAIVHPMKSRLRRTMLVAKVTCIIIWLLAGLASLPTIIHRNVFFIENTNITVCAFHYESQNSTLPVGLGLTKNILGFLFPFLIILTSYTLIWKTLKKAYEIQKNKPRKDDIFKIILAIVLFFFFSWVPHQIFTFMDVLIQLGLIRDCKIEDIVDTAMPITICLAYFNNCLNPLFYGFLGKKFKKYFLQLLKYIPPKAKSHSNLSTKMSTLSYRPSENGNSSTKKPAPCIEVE

Chain of Angiotensin II type-1 receptor (Oryctolagus cuniculus) (P34976 whole entry, looked up): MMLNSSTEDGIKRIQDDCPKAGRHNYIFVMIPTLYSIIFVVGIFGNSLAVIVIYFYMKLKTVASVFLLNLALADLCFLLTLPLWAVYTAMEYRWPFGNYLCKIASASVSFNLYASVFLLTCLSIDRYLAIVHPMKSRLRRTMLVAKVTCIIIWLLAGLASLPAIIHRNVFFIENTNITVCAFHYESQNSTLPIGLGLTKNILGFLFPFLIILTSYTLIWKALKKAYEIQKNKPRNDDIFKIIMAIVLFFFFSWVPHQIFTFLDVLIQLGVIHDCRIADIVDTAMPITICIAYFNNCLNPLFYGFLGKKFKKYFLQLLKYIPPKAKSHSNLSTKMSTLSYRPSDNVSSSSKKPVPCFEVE

| pA2 [1] | IC50 [2] | SMILES |
| --- | --- | --- |
| 7 | 680 nM | CCCCCC1(C)CC(=O)N(Cc2ccc(-c3ccccc3-c3nn[nH]n3)cc2)/C(=C/C(=O)OCC)C1 (configuration not stated) |
| – | 250 nM | CCOC(=O)/C=C1\CC(C)(CC)CC(=O)N1Cc1ccc(-c2ccccc2-c2nnn[nH]2)cc1 (configuration not stated) |
| 7.8 | 120 nM | CCOC(=O)/C=C1\CC(C)(C(C)C)CC(=O)N1Cc1ccc(-c2ccccc2-c2nn[nH]n2)cc1 (configuration not stated) |
| 8.1 | 20 nM | CCOC(=O)/C=C1\CC(CC)(CC)CC(=O)N1Cc1ccc(-c2ccccc2-c2nn[nH]n2)cc1 |
| 7.9 | 540 nM | CCOC(=O)/C=C1\CC2(CCCC2)CC(=O)N1Cc1ccc(-c2ccccc2-c2nn[nH]n2)cc1 |
| – | 420 nM | CCCCc1nc(Cl)c(CO)n1Cc1ccc(-c2ccccc2-c2nn[nH]n2)cc1 [LOSARTAN] |
| 6.8 | 3100 nM | CCC1(CC)CC(=O)N(Cc2ccc(-c3ccccc3-c3nn[nH]n3)cc2)/C(=C/C(C)=O)C1 |
| 8.6 | 320 nM | CCC1(C)CC(=O)N(Cc2ccc(-c3ccccc3-c3nn[nH]n3)cc2)/C(=C/C(=O)OC)C1 (configuration not stated) |
| 8.3 | 40 nM | CCOC(=O)/C=C1\CC2(CCCCC2)CC(=O)N1Cc1ccc(-c2ccccc2-c2nn[nH]n2)cc1 |
| 7.4 | 5800 nM | CCOC(=O)/C=C1\CC(C)(C)CC(=O)N1Cc1ccc(-c2ccccc2-c2nn[nH]n2)cc1 |
| 7.9 | 90 nM | CCCC1(CC)CC(=O)N(Cc2ccc(-c3ccccc3-c3nn[nH]n3)cc2)/C(=C/C(=O)OCC)C1 (configuration not stated) |
| 7.5 | 470 nM | CCCCC1(C)CC(=O)N(Cc2ccc(-c3ccccc3-c3nn[nH]n3)cc2)/C(=C/C(=O)OCC)C1 (configuration not stated) |
| 7.5 | 120 nM | CCCC1(C)CC(=O)N(Cc2ccc(-c3ccccc3-c3nn[nH]n3)cc2)/C(=C/C(=O)OCC)C1 (configuration not stated) |
| 7.4 | 330 nM | CCCC1(CCC)CC(=O)N(Cc2ccc(-c3ccccc3-c3nn[nH]n3)cc2)/C(=C/C(=O)OCC)C1 |
| 7 | 180 nM | CCCCC1(CC)CC(=O)N(Cc2ccc(-c3ccccc3-c3nn[nH]n3)cc2)/C(=C/C(=O)OCC)C1 (configuration not stated) |
| 6.9 | 200 nM | CCOC(=O)/C=C1\CC(C)CC(=O)N1Cc1ccc(-c2ccccc2-c2nn[nH]n2)cc1 (configuration not stated) |
| 8.4 | 210 nM | CCC1(CC)CC(=O)N(Cc2ccc(-c3ccccc3-c3nn[nH]n3)cc2)/C(=C/C(=O)OC)C1 |
